{"source": "paper PMC9150124", "about": "“Design of a Potent, Selective, and Brain-Penetrant Inhibitor of Wnt-Deactivating Enzyme Notum by Optimization of a Crystallographic Fragment Hit” (Journal of Medicinal Chemistry, 2022)", "experiment_in_all_cases": "SelectScreen kinase profiling, SSBK ZLyte SP Technology", "type_in_all_cases": "biochemical", "key": {"[1]": {"biological_target": "kinase named in conditions (Homo sapiens, UniProt O15146)", "settings": "MUSK, 10 μM", "procedure": "(§1) Kinase selectivity screening was performed by Thermo Fisher Scientific (Paisley, U.K.) in their SelectScreen Biochemical Kinase Profiling Service. Assay information and data are presented in the Supporting Information.\n(§2) Kinase selectivity screening was performed by ThermoFisher Scientific (Paisley, U.K.) in their SelectScreenTM\n(§3) Biochemical Kinase Profiling service ."}, "[2]": {"biological_target": "kinase named in conditions (Homo sapiens, UniProt Q8IU85)", "settings": "CAMK1D (CaMKI delta), 10 μM", "procedure": "as §1, §2, §3"}, "[3]": {"biological_target": "kinase named in conditions (Homo sapiens, UniProt Q9H422)", "settings": "HIPK3 (YAK1), 10 μM", "procedure": "as §1, §2, §3"}, "[4]": {"biological_target": "kinase named in conditions (Homo sapiens, UniProt P51955)", "settings": "NEK2, 10 μM", "procedure": "as §1, §2, §3"}, "[5]": {"biological_target": "kinase named in conditions (Homo sapiens, UniProt Q9P286)", "settings": "PAK7 (KIAA1264), 10 μM", "procedure": "as §1, §2, §3"}, "[6]": {"biological_target": "kinase named in conditions (Homo sapiens, UniProt Q9UHD2)", "settings": "TBK1, 10 μM", "procedure": "as §1, §2, §3"}, "[7]": {"biological_target": "kinase named in conditions (Homo sapiens, UniProt P48730)", "settings": "CSNK1D (CK1 delta), 10 μM", "procedure": "as §1, §2, §3"}, "[8]": {"biological_target": "kinase named in conditions (Homo sapiens, UniProt P05129)", "settings": "PRKCG (PKC gamma), 10 μM", "procedure": "as §1, §2, §3"}, "[9]": {"biological_target": "kinase named in conditions (Homo sapiens, UniProt P10721, V560G)", "settings": "KIT V560G, 10 μM", "procedure": "as §1, §2, §3"}, "[10]": {"biological_target": "kinase named in conditions (Homo sapiens, UniProt Q9UBS0)", "settings": "RPS6KB2 (p70S6Kb), 10 μM", "procedure": "as §1, §2, §3"}, "[11]": {"biological_target": "kinase named in conditions (Homo sapiens, UniProt P22455)", "settings": "FGFR4, 10 μM", "procedure": "as §1, §2, §3"}, "[12]": {"biological_target": "kinase named in conditions (Homo sapiens, UniProt Q86Z02)", "settings": "HIPK1 (Myak), 10 μM", "procedure": "as §1, §2, §3"}, "[13]": {"biological_target": "kinase named in conditions (Homo sapiens, UniProt Q13164)", "settings": "MAPK7 (ERK5), 10 μM", "procedure": "as §1, §2, §3"}, "[14]": {"biological_target": "kinase named in conditions (Homo sapiens, UniProt P21709)", "settings": "EPHA1, 10 μM", "procedure": "as §1, §2, §3"}, "[15]": {"biological_target": "kinase named in conditions (Homo sapiens, UniProt P08581, M1250T)", "settings": "MET M1250T, 10 μM", "procedure": "as §1, §2, §3"}, "[16]": {"biological_target": "kinase named in conditions (Homo sapiens, UniProt Q8IY84)", "settings": "NIM1K, 10 μM", "procedure": "as §1, §2, §3"}, "[17]": {"biological_target": "kinase named in conditions (Homo sapiens, UniProt P41240)", "settings": "CSK, 10 μM", "procedure": "as §1, §2, §3"}, "[18]": {"biological_target": "kinase named in conditions (Homo sapiens, UniProt P07949, V804L)", "settings": "RET V804L, 10 μM", "procedure": "as §1, §2, §3"}, "[19]": {"biological_target": "kinase named in conditions (Homo sapiens, UniProt P07333)", "settings": "CSF1R (FMS), 10 μM", "procedure": "as §1, §2, §3"}, "[20]": {"biological_target": "kinase named in conditions (Homo sapiens, UniProt P08581, Y1235D)", "settings": "MET (cMet) Y1235D, 10 μM", "procedure": "as §1, §2, §3"}, "[21]": {"biological_target": "kinase named in conditions (Homo sapiens, UniProt Q8IW41)", "settings": "MAPKAPK5 (PRAK), 10 μM", "procedure": "as §1, §2, §3"}, "[22]": {"biological_target": "kinase named in conditions (Homo sapiens, UniProt Q14680)", "settings": "MELK, 10 μM", "procedure": "as §1, §2, §3"}, "[23]": {"biological_target": "kinase named in conditions (Homo sapiens, UniProt P35968)", "settings": "KDR (VEGFR2), 10 μM", "procedure": "as §1, §2, §3"}, "[24]": {"biological_target": "kinase named in conditions (Homo sapiens, UniProt Q13131)", "procedure": "as §1, §2, §3"}, "[25]": {"biological_target": "kinase named in conditions (Homo sapiens, UniProt P68400)", "settings": "CSNK2A1 (CK2 alpha 1), 10 μM", "procedure": "as §1, §2, §3"}, "[26]": {"biological_target": "kinase named in conditions (Homo sapiens, UniProt Q13470)", "settings": "TNK1, 10 μM", "procedure": "as §1, §2, §3"}, "[27]": {"biological_target": "kinase named in conditions (Homo sapiens, UniProt Q16566)", "settings": "CAMK4 (CaMKIV), 10 μM", "procedure": "as §1, §2, §3"}, "[28]": {"biological_target": "kinase named in conditions (Homo sapiens, UniProt P00519, F317L)", "settings": "ABL1 F317L, 10 μM", "procedure": "as §1, §2, §3"}, "[29]": {"biological_target": "kinase named in conditions (Homo sapiens, UniProt P42684)", "settings": "ABL2 (Arg), 10 μM", "procedure": "as §1, §2, §3"}, "[30]": {"biological_target": "kinase named in conditions (Homo sapiens, UniProt Q9UL54)", "settings": "TAOK2 (TAO1), 10 μM", "procedure": "as §1, §2, §3"}, "[31]": {"biological_target": "kinase named in conditions (Homo sapiens, UniProt P78527)", "settings": "DNA-PK, 10 μM", "procedure": "as §1, §2, §3"}, "[32]": {"biological_target": "kinase named in conditions (Homo sapiens, UniProt Q13177)", "settings": "PAK2 (PAK65), 10 μM", "procedure": "as §1, §2, §3"}, "[33]": {"biological_target": "kinase named in conditions (Homo sapiens, UniProt P54756)", "settings": "EPHA5, 10 μM", "procedure": "as §1, §2, §3"}, "[34]": {"biological_target": "kinase named in conditions (Homo sapiens, UniProt P23443)", "settings": "RPS6KB1 (p70S6K), 10 μM", "procedure": "as §1, §2, §3"}}}
{"smiles": "FC(F)(F)c1c(Cl)ccc(-n2ccnn2)c1Cl", "note": "[8l, 1-(2,4-Dichloro-3-(trifluoromethyl)phenyl)-1H-1,2,3-triazole]", "values": [{"measurement": "inhibition at 10 µM", "setting": "[1]", "result": -4, "unit": "%"}, {"measurement": "inhibition at 10 µM", "setting": "[2]", "result": 1, "unit": "%"}, {"measurement": "inhibition at 10 µM", "setting": "[3]", "result": 3, "unit": "%"}, {"measurement": "inhibition at 10 µM", "setting": "[4]", "result": -11, "unit": "%"}, {"measurement": "inhibition at 10 µM", "setting": "[5]", "result": 8, "unit": "%"}, {"measurement": "inhibition at 10 µM", "setting": "[6]", "result": 0, "unit": "%"}, {"measurement": "inhibition at 10 µM", "setting": "[7]", "result": 3, "unit": "%"}, {"measurement": "inhibition at 10 µM", "setting": "[8]", "result": 12, "unit": "%"}, {"measurement": "inhibition at 10 µM", "setting": "[9]", "result": 3, "unit": "%"}, {"measurement": "inhibition at 10 µM", "setting": "[10]", "result": 4, "unit": "%"}, {"measurement": "inhibition at 10 µM", "setting": "[11]", "result": 2, "unit": "%"}, {"measurement": "inhibition at 10 µM", "setting": "[12]", "result": 2, "unit": "%"}, {"measurement": "inhibition at 10 µM", "setting": "[13]", "result": -3, "unit": "%"}, {"measurement": "inhibition at 10 µM", "setting": "[14]", "result": 4, "unit": "%"}, {"measurement": "inhibition at 10 µM", "setting": "[15]", "result": 3, "unit": "%"}, {"measurement": "inhibition at 10 µM", "setting": "[16]", "result": 5, "unit": "%"}, {"measurement": "inhibition at 10 µM", "setting": "[17]", "result": 2, "unit": "%"}, {"measurement": "inhibition at 10 µM", "setting": "[18]", "result": 8, "unit": "%"}, {"measurement": "inhibition at 10 µM", "setting": "[19]", "result": 6, "unit": "%"}, {"measurement": "inhibition at 10 µM", "setting": "[20]", "result": 0, "unit": "%"}, {"measurement": "inhibition at 10 µM", "setting": "[21]", "result": 6, "unit": "%"}, {"measurement": "inhibition at 10 µM", "setting": "[22]", "result": 12, "unit": "%"}, {"measurement": "inhibition at 10 µM", "setting": "[23]", "result": 14, "unit": "%"}, {"measurement": "inhibition at 10 µM", "setting": "[24]; AMPK (A1/B2/G2), 10 μM", "result": 6, "unit": "%"}, {"measurement": "inhibition at 10 µM", "setting": "[24]; AMPK (A1/B2/G3), 10 μM", "result": 6, "unit": "%"}, {"measurement": "inhibition at 10 µM", "setting": "[24]; AMPK A1/B1/G1, 10 μM", "result": 14, "unit": "%"}, {"measurement": "inhibition at 10 µM", "setting": "[25]", "result": 5, "unit": "%"}, {"measurement": "inhibition at 10 µM", "setting": "[26]", "result": -3, "unit": "%"}, {"measurement": "inhibition at 10 µM", "setting": "[27]", "result": 15, "unit": "%"}, {"measurement": "inhibition at 10 µM", "setting": "[28]", "result": 16, "unit": "%"}, {"measurement": "inhibition at 10 µM", "setting": "[29]", "result": 10, "unit": "%"}, {"measurement": "inhibition at 10 µM", "setting": "[30]", "result": -8, "unit": "%"}, {"measurement": "inhibition at 10 µM", "setting": "[31]", "result": 0, "unit": "%"}, {"measurement": "inhibition at 10 µM", "setting": "[32]", "result": 5, "unit": "%"}, {"measurement": "inhibition at 10 µM", "setting": "[33]", "result": 0, "unit": "%"}, {"measurement": "inhibition at 10 µM", "setting": "[34]", "result": 9, "unit": "%"}]}
